5 compounds from patent publication US12679822B2, “Alkenyl pyrimidine compound, preparation method therefor, and application thereof” (Hongyun Biotech Co., Ltd., priority 2020, dated 2026) can be followed below.

Bounds are passed on as bounds.

Holding throughout (format): cell-based
In assay [1] the target is BaF3 cell lines stably transfected with kinase EGFR L858R (Homo sapiens, UniProt P00533, L858R, cells depend on it). Nature of the assay: Growth inhibition of BaF3 cell line stably transfected with kinase EGFR L858R (MTS). Particulars: 48 h, read-out: growth inhibitory activity IC50, L858R. The method, boiled down:
(§1)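 Read-out: MTS absorbance at 490 nm after 1-4 h reagent incubation. Cells exposed 48 h to compound (10 μM top, ⅓ steps, 8 points, 0.1% DMSO) in DMEM or RPMI 1640 with 10% FBS. IC50 derived from growth inhibition normalized to DMSO and blank wells.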

Assay [2] addresses BaF3 cell lines stably transfected with kinase EGFR L858R/T790M (Homo sapiens, UniProt P00533, T790M/L858R, cells depend on it). Nature of the assay: Growth inhibition of BaF3 cell line stably transfected with kinase EGFR L858R/T790M (MTS). Conditions: 48 h, read-out: growth inhibitory activity IC50, L858R/T790M. In a few lines: as §1
Assay [3] concerns the target BaF3 cell lines stably transfected with kinase EGFR Del (Homo sapiens, UniProt P00533, cells depend on it, form not given). Nature of the assay: Growth inhibition of BaF3 cell line stably transfected with kinase EGFR Del (MTS). Particulars: 48 h, read-out: growth inhibitory activity IC50, Del. The method, boiled down:
as §1

The target in assay [4] is BaF3 cell lines stably transfected with kinase EGFR Del/T790M/C797S (Homo sapiens, UniProt P00533, T790M/C797S, cells depend on it, form not given). Nature of the assay: Growth inhibition of BaF3 cell line stably transfected with kinase EGFR Del/T790M/C797S (MTS). Conditions: 48 h, read-out: growth inhibitory activity IC50, Del/T790M/C797S. In a few lines: as §1
Assay [5] concerns the target BaF3 cell lines stably transfected with kinase EGFR Del/T790M (Homo sapiens, UniProt P00533, T790M, cells depend on it, form not given). Nature of the assay: Growth inhibition of BaF3 cell line stably transfected with kinase EGFR Del/T790M (MTS). Particulars: 48 h, read-out: growth inhibitory activity IC50, Del/T790M. In a few lines:
as §1

Assay [6] has as its target BaF3 cell lines stably transfected with kinase EGFR L858R/T790M/C797S (Homo sapiens, UniProt P00533, T790M/C797S/L858R, cells depend on it). Kind of assay: Growth inhibition of BaF3 cell line stably transfected with kinase EGFR L858R/T790M/C797S (MTS). Conditions: 48 h, read-out: growth inhibitory activity IC50, L858R/T790M/C797S. The method, boiled down:
as §1

Sequence of BaF3 cell lines stably transfected with kinase EGFR Del/T790M/C797S (P00533 with tags, fused parts or gaps DEL746-750/T790M/C797S, form open): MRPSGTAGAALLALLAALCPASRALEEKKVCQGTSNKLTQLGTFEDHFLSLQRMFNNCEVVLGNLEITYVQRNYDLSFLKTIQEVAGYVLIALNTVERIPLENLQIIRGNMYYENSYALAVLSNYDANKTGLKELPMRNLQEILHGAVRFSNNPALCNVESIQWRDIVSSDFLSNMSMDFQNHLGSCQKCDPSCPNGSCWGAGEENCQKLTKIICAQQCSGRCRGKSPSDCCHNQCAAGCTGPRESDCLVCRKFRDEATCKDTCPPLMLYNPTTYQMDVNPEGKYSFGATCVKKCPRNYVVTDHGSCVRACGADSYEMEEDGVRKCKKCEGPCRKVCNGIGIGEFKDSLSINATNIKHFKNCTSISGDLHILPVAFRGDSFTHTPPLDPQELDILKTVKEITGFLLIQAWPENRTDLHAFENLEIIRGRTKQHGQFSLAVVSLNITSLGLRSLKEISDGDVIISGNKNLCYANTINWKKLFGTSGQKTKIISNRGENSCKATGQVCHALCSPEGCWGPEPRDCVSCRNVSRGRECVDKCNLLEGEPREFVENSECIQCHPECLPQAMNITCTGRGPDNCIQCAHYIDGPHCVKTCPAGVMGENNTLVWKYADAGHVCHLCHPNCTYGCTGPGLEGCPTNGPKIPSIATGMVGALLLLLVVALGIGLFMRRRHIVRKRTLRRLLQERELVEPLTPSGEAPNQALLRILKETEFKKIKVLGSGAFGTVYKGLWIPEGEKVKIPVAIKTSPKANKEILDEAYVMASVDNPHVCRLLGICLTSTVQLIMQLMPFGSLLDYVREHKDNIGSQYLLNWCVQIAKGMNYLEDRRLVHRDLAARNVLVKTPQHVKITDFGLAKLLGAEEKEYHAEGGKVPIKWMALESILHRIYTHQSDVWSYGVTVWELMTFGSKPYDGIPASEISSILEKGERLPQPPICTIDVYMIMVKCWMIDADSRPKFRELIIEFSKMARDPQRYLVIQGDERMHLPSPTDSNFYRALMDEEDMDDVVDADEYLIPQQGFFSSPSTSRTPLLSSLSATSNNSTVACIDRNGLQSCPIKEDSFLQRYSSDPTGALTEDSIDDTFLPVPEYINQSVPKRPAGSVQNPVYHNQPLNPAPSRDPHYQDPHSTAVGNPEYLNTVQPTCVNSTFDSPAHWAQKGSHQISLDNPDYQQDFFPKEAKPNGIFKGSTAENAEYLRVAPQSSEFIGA
Sequence of BaF3 cell lines stably transfected with kinase EGFR L858R/T790M/C797S (P00533 whole entry T790M/C797S/L858R): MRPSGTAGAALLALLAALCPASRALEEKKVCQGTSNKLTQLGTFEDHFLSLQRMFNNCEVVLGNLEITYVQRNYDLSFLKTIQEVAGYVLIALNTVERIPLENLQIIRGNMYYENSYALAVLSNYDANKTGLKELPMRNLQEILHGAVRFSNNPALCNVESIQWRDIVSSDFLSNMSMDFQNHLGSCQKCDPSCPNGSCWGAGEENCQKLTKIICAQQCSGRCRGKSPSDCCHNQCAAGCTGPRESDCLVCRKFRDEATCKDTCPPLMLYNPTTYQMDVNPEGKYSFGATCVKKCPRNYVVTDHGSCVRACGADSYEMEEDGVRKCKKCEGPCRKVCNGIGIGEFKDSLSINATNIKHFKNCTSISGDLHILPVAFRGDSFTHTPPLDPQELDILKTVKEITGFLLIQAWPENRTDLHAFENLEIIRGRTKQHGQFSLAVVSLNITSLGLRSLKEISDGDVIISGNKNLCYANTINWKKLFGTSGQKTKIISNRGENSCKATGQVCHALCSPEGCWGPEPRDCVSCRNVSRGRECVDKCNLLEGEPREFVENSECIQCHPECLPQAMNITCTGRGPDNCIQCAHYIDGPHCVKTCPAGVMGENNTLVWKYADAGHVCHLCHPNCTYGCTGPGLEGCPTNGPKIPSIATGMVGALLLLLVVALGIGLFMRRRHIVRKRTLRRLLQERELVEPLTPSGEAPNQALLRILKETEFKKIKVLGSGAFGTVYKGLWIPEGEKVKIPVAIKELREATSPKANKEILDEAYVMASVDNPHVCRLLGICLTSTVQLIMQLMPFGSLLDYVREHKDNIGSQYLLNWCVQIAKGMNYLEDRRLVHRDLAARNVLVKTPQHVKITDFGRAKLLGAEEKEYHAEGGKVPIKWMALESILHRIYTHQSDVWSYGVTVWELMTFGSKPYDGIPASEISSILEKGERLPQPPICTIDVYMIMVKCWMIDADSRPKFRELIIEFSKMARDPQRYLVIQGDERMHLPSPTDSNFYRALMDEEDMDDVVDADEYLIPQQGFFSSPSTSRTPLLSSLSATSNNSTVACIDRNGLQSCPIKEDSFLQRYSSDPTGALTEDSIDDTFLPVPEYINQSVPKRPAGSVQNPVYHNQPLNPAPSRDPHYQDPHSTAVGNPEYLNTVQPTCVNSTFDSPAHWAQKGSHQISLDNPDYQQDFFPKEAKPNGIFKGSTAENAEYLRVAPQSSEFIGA
Sequence of BaF3 cell lines stably transfected with kinase EGFR Del (P00533 with tags, fused parts or gaps DEL746-750): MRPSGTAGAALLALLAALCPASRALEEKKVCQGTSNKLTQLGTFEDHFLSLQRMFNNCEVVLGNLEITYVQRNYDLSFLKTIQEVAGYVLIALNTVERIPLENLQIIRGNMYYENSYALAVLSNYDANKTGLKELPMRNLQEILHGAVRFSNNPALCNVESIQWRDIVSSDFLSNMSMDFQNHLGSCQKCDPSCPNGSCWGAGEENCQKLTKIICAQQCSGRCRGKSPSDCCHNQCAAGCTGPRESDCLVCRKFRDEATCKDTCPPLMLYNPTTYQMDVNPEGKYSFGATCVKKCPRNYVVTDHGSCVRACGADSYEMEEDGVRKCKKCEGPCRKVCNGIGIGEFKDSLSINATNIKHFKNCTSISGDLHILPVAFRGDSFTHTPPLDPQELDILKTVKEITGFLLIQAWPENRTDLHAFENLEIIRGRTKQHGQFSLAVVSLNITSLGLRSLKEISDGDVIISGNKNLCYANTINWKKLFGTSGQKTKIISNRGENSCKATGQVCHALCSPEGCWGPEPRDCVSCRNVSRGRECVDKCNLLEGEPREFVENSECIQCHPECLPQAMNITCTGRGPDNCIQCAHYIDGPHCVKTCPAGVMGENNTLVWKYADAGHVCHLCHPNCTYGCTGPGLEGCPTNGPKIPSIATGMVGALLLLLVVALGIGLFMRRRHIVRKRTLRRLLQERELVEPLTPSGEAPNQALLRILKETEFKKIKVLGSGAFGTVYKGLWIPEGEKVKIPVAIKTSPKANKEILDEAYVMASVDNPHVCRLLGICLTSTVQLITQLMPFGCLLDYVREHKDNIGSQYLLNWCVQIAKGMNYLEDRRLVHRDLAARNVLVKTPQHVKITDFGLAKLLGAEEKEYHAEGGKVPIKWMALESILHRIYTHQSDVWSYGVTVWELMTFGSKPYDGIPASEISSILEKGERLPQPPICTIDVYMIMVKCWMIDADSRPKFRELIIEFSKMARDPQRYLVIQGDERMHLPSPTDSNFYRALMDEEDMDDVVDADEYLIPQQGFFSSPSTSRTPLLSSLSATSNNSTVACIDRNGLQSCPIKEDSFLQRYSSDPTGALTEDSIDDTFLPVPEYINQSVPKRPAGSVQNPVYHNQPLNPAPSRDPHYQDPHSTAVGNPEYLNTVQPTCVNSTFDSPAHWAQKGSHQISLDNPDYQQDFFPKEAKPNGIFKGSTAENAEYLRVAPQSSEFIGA
Sequence of BaF3 cell lines stably transfected with kinase EGFR Del/T790M (P00533 with tags, fused parts or gaps DEL746-750/T790M, form open): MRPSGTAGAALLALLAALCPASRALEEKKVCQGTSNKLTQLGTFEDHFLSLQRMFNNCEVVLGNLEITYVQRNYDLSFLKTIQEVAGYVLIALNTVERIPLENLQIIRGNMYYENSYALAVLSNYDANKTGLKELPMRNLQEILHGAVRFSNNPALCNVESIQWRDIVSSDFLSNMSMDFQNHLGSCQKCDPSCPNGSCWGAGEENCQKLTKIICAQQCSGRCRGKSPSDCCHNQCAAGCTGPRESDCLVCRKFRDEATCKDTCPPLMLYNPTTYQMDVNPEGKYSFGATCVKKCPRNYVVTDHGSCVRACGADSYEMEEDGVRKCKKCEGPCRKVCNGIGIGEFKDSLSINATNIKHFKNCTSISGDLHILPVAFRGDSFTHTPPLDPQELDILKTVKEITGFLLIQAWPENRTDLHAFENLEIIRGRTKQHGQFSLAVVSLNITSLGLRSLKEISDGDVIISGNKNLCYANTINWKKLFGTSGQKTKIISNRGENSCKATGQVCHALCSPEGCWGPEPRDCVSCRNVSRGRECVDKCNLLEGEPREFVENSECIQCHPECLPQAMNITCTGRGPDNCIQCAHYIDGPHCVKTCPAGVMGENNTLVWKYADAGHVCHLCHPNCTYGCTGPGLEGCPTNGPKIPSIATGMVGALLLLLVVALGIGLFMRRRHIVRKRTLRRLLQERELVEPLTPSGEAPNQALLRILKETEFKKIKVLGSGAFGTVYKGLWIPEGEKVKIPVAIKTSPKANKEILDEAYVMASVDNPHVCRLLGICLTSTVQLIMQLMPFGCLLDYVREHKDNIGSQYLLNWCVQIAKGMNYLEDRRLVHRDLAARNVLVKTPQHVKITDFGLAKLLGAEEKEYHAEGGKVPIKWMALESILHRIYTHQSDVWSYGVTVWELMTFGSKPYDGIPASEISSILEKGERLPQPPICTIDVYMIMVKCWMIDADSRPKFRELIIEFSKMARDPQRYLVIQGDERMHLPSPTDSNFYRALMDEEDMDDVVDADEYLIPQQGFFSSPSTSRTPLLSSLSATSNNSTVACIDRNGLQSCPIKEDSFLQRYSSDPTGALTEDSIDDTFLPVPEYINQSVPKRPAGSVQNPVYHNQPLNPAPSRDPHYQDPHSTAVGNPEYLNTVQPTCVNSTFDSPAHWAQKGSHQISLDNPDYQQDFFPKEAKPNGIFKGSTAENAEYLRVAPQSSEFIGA

Take `C=Cc1cnc(Nc2cc(CC)c(N3CCC(N(C)C)CC3)cc2OC)nc1Nc1ccc2nccnc2c1P(C)(C)=O` [Compound I-2]: the GI50 in assay [1], in assay [2], in assay [3], in assay [4], in assay [5] and in assay [6] was at most 50 nM in each case.

In the case of `C=Cc1cnc(Nc2cnn(CC)c2)nc1Nc1ccc2nccnc2c1N(C)S(C)(=O)=O` [II-66], the GI50 in assay [1] is 500 to 2500 nM; in assay [2] it was 500 to 2500 nM; in assay [3], 500 to 2500 nM; in assay [4] it was 50 to 500 nM; in assay [5], 500 to 2500 nM; in assay [6], 500 to 2500 nM.

Turning to `C=Cc1cnc(Nc2cc(CC)n(C)n2)nc1Nc1ccc2nccnc2c1N(C)S(C)(=O)=O` [II-63], the GI50 in assay [1] was 500 to 2500 nM; in assay [2], 50 to 500 nM; in assay [3] it was 50 to 500 nM; in assay [4], 50 to 500 nM; in assay [5], 50 to 500 nM; in assay [6], 50 to 500 nM.

For the compound `C=Cc1cnc(Nc2cc(CC)c(N3CCC(N4CCN(C)CC4)CC3)nc2OC)nc1Nc1ccc2nccnc2c1N(C)S(C)(=O)=O` [II-5], the GI50 in assay [1] is 50 to 500 nM; in assay [2] it was at most 50 nM; in assay [3] it was 50 to 500 nM; in assay [4], 50 to 500 nM; in assay [5] it was at most 50 nM; in assay [6] it was 50 to 500 nM.

Consider `C=Cc1cnc(Nc2cc(CC)c(N3CCC(N4CCN(C)CC4)CC3)cc2OC)nc1Nc1ccc2nccnc2c1S(C)(=O)=O` [III-1], for which the GI50 in assay [1] was 500 to 2500 nM; in assay [2], 50 to 500 nM; in assay [3] it was 50 to 500 nM; in assay [4], 500 to 2500 nM; in assay [5] it was 50 to 500 nM; in assay [6] it was 500 to 2500 nM.
